Assay results as given in US10287295B2, “TGF-β inhibitors” (Rigel Pharmaceuticals, Inc., priority 2015, dated 2019).

Tests used:
[1] = tested on: GDF8 signaling (GDF pSMAD, MPC11); test: AlphaScreen SureFire SMAD3 (p-Ser423/425) assay, inhibition of GDF8 signaling; assay type: cell-based; settings: Mus musculus, MPC-11, inhibition of GDF8 signaling, p-SMAD3 readout
[2] = tested on: TGF-β signaling (TGF-β pSMAD, MPC-11); test: AlphaScreen SureFire SMAD3 (p-Ser423/425) assay, inhibition of TGF-β signaling; assay type: cell-based; settings: Mus musculus, MPC-11, inhibition of TGF-β signaling, p-SMAD3 readout

| Compound | IC50 [1] [µM] | IC50 [2] [µM] |
| --- | --- | --- |
| Cc1nc(-c2cc(F)c(F)c(F)c2)c(-c2ccc3cn[nH]c3c2)[nH]1 [Compound 91, 6-(2-Methyl-4-(3,4,5-trifluorophenyl)-1H-imidazol-5-yl)-1H-indazole] | 0.39 | 2.23 |
| Cc1nc(-c2ccc(F)c(F)c2)c(-c2ccc3ncn(C)c3c2)[nH]1 [Compound 85, 6-(4-(3,4-Difluorophenyl)-2-methyl-1H-imidazol-5-yl)-1-methyl-1H-benzo[d]imidazole] | 0.18 | 0.67 |
| CCc1nc(-c2ccc(F)c(C)c2)c(-c2ccc3cn[nH]c3c2)[nH]1 [Compound 107, 6-(2-Ethyl-4-(4-fluoro-3-methylphenyl)-1H-imidazol-5-yl)-1H-indazole] | 0.34 | 1.85 |
| Cc1cc(-c2ncn(C)c2-c2ccc3ncsc3c2)ccc1F [Compound 9, 6-(4-(4-Fluoro-3-methylphenyl)-1-methyl-1H-imidazol-5-yl)benzo[d]thiazole] | 0.06 | 0.33 |
| Cc1cc(-c2ncn(C)c2-c2ccc3nccnc3c2)ccc1F [Compound 21, 6-(4-(4-Fluoro-3-methylphenyl)-1-methyl-1H-imidazol-5-yl)quinoxaline] | 0.38 | 0.74 |
| Cc1nc(-c2ccc(F)c(F)c2)c(-c2ccc3ncccc3c2)[nH]1 [Compound 88, 6-(4-(3,4-Difluorophenyl)-2-methyl-1H-imidazol-5-yl)quinoline] | 1.02 | 11.5 |
| Cc1cccc(-c2ncn(C)c2-c2ccc3cn[nH]c3c2)c1 [Compound 42, 6-(1-Methyl-4-(m-tolyl)-1H-imidazol-5-yl)-1H-indazole] | 0.03 | 0.15 |
| Cc1nc(-c2ccc(F)cc2)c(-c2ccc3[nH]ncc3c2)[nH]1 [Compound 77, 5-(4-(4-Fluorophenyl)-2-methyl-1H-imidazol-5-yl)-1H-indazole] | 0.22 | 1.43 |
| Cc1cccc(-c2ncsc2-c2ccc3ncsc3c2)c1 [Compound 161, 6-(4-(m-tolyl)thiazol-5-yl)benzo[d]thiazole] | 0.0468 | 0.427 |
| CCc1nc(-c2ccc(F)cc2)c(-c2ccc3nccn3c2)[nH]1 [Compound 123, 6-(2-Ethyl-4-(4-fluorophenyl)-1H-imidazol-5-yl)imidazo[1,2-a]pyridine] | 0.74 | 9.37 |
| Cc1nc(-c2cc(F)c(F)c(F)c2)c(-c2ccc3[nH]ncc3c2)[nH]1 [Compound 90, 5-(2-Methyl-4-(3,4,5-trifluorophenyl)-1H-imidazol-5-yl)-1H-indazole] | 0.63 | 3.56 |
| COc1ccc(-c2nc(N)sc2-c2ccc3nccnc3c2)cc1 [Compound 182, 4-(4-methoxyphenyl)-5-(quinoxalin-6-yl)thiazol-2-amine] | 0.352 | 1.12 |
| Fc1ccc(-c2nc[nH]c2-c2ccc3ncccc3c2)cc1 [Compound 38, 6-(4-(4-Fluorophenyl)-1H-imidazol-5-yl)quinoline] | 0.93 | 2.55 |
| COc1ccc(-c2ncn(C)c2-c2ccc3[nH]ncc3c2)cc1 [Compound 69, 5-(4-(4-Methoxyphenyl)-1-methyl-1H-imidazol-5-yl)-1H-indazole] | 0.14 | 1.77 |
| Cc1nc(-c2cc(F)c(F)cc2F)c(-c2ccc3ncccc3c2)[nH]1 [Compound 100, 6-(2-Methyl-4-(2,4,5-trifluorophenyl)-1H-imidazol-5-yl)quinoline] | 0.17 | 1.37 |
| CCc1nc(-c2cc(F)cc(F)c2)c(-c2ccc3ncsc3c2)[nH]1 [Compound 149, 6-(4-(3,5-Difluorophenyl)-2-ethyl-1H-imidazol-5-yl)benzo[d]thiazole] | 0.72 | 3.22 |

| Compound | IC50 [1] [µM] | IC50 [2] [µM] |
| --- | --- | --- |
| Cc1nc(-c2ccc(F)c(C)c2)c(-c2ccc3nccn3c2)[nH]1 [Compound 74, 6-(4-(4-Fluoro-3-methylphenyl)-2-methyl-1H-imidazol-5-yl)imidazo[1,2-a]pyridine] | 0.2 | 1.41 |
| Cn1cnc(-c2ccc(F)c(F)c2)c1-c1ccc2ncsc2c1 [Compound 67, 6-(4-(3,4-Difluorophenyl)-1-methyl-1H-imidazol-5-yl)benzo[d]thiazole] | 0.58 | 1.68 |
| COc1ccc(-c2nc(N)sc2-c2ccc3nccn3c2)cc1 [Compound 163, 5-(imidazo[1,2-a]pyridin-6-yl)-4-(4-methoxyphenyl)thiazol-2-amine] | 0.054 | 0.169 |
| CNc1nc(-c2ccc(F)cc2)c(-c2ccc3nccn3c2)s1 [Compound 188, 4-(4-fluorophenyl)-5-(imidazo[1,2-a]pyridin-6-yl)-N-methylthiazol-2-amine] | 0.784 | 0.365 |
| Cn1cnc(-c2cccc(Cl)c2)c1-c1ccc2ncn(C)c2c1 [Compound 62, 6-(4-(3-Chlorophenyl)-1-methyl-1H-imidazol-5-yl)-1-methyl-1H-benzo[d]imidazole] | 0.05 | 0.22 |
| CCc1nc(-c2cccc(C)c2)c(-c2ccc3nccnc3c2)[nH]1 [Compound 118, 6-(2-Ethyl-4-(m-tolyl)-1H-imidazol-5-yl)quinoxaline] | 0.23 | 1.39 |
| Cc1nc(-c2cccc(Cl)c2)c(-c2ccc3nccn3c2)[nH]1 [Compound 104, 6-(4-(3-Chlorophenyl)-2-methyl-1H-imidazol-5-yl)imidazo[1,2-a]pyridine] | 0.08 | 0.51 |
| Fc1ccc(-c2nc[nH]c2-c2ccc3nccn3c2)cc1F [Compound 35, 6-(4-(3,4-Difluorophenyl)-1H-imidazol-5-yl)imidazo[1,2-a]pyridine] | 0.3 | 0.64 |
| CCc1nc(-c2cc(F)cc(Cl)c2)c(-c2ccc3ncsc3c2)[nH]1 [Compound 140, 6-(4-(3-Chloro-5-fluorophenyl)-2-ethyl-1H-imidazol-5-yl)benzo[d]thiazole] | 0.62 | 2.22 |
| CCc1nc(-c2cccc(C)c2)c(-c2ccc3cn[nH]c3c2)[nH]1 [Compound 114, 6-(2-Ethyl-4-(m-tolyl)-1H-imidazol-5-yl)-1H-indazole] | 0.18 | 1.13 |
| Nc1nc(-c2cccc(F)c2)c(-c2ccc3[nH]ncc3c2)s1 [Compound 179, 4-(3-fluorophenyl)-5-(1H-indazol-5-yl)thiazol-2-amine] | 0.268 | 1.28 |
| CCc1nc(-c2ccc(F)c(C)c2)c(-c2ccc3[nH]ncc3c2)[nH]1 [Compound 106, 5-(2-Ethyl-4-(4-fluoro-3-methylphenyl)-1H-imidazol-5-yl)-1H-indazole] | 0.15 | 0.92 |
| Clc1cccc(-c2nc[nH]c2-c2ccc3[nH]ncc3c2)c1 [Compound 22, 5-(4-(3-Chlorophenyl)-1H-imidazol-5-yl)-1H-indazole] | 0.02 | 0.03 |
| Cc1nc(-c2ccc(F)c(C)c2)c(-c2ccc3cn[nH]c3c2)[nH]1 [Compound 72, 6-(4-(4-Fluoro-3-methylphenyl)-2-methyl-1H-imidazol-5-yl)-1H-indazole] | 0.1 | 0.97 |
| Cc1cccc(-c2ncn(C)c2-c2ccc3ncccc3c2)c1 [Compound 46, 6-(1-Methyl-4-(m-tolyl)-1H-imidazol-5-yl)quinoline] | 0.26 | 1.68 |
| Cc1cccc(-c2nc[nH]c2-c2ccc3[nH]ncc3c2)c1 [Compound 15, 5-(4-(m-Tolyl)-1H-imidazol-5-yl)-1H-indazole] | 0.01 | 0.06 |
